# Measurements: patent publication US12139520B2 (priority 2020, dated 2024)
# Bridge positions count the residues as written; N and C are the ends. Square brackets hold non-standard residues; d marks the D form. Peptide text beside a SMILES is read from it. Hyp = O=C(O)[C@@H]1C[C@@H](O)CN1
# Assay: Physical stability of peptide analogues (Thioflavin T fibrillation)
# Format: physicochemical
# Conditions: maximum ThT signal normalized between hAMY maximum and buffer background; 40° C., shaking, four days; pH 7 per table title
# Description: General Protocols for Determination of Physical Stability of Peptide Analogues
# Peptides were dissolved in buffers (50 mM sodium acetate at pH 4 or 50 mM sodium phosphate at pH 7) and incubated for one hour. The samples were then divided into two replicates of 80 μl in a black 384 well plate (μ-clear, Greiner Bio-One) and mixed with Thioflavin T (ThT) to a final concentration of 4 μM. The plate was sealed and placed in a plate reader (CLARIOstar, BMG) where the temperature was set at 40° C. during the course of the experiment. The samples were further stressed by shaking the plate at 700 rpm (linear) for five minutes before every measurement. The fluorescence was measured every 10 min for four days by exciting the ThT at 450 nm and measuring the emission at 480 nm. For each peptide, the ThT signal over time was smoothened using Local Polynomial Regression fitting (LOESS) as implemented in the statistical programming environment R. For the smoothened data, the maximum ThT signal was normalized in percent between the maximum ThT signal for hAMY and the buffer background.
row,Max ThT signal (%),Structure (SMILES)
1,6.000,CC[C@H](C)[C@H](NC(=O)[C@H](CCC(N)=O)NC(=O)[C@H](Cc1c[nH]cn1)NC(=O)[C@H](C)NC(=O)[C@H](CC(C)C)NC(=O)[C@H](CCCNC(=N)N)NC(=O)[C@H](CCC(N)=O)NC(=O)[C@@H](NC(=O)[C@@H](NC(=O)[C@@H]1CSSC[C@H](NC(=O)CN)C(=O)N[C@@H](CCCNC(=N)N)C(=O)N[C@@H]([C@@H](C)O)C(=O)NCC(=O)N[C@@H]([C@@H](C)O)C(=O)N1)[C@@H](C)O)C(C)C)C(=O)N[C@@H](Cc1ccc(O)cc1)C(=O)N[C@@H](CCC(N)=O)C(=O)N[C@@H](Cc1ccccc1)C(=O)N[C@H](C(=O)N[C@@H](CC(=O)O)C(=O)N[C@@H](CCCCN)C(=O)N[C@@H](CC(=O)O)C(=O)N[C@@H](CCCCN)C(=O)N[C@@H](CC(=O)O)C(=O)N[C@@H](CC(N)=O)C(=O)N[C@H](C(=O)N[C@@H](C)C(=O)N1CCC[C@H]1C(=O)N[C@@H](CCCNC(=N)N)C(=O)N[C@H](C(=O)N[C@@H](CCCCN)C(=O)N[C@H](C(=O)N[C@@H](CO)C(=O)N1CCC[C@H]1C(=O)N[C@@H](CCC(N)=O)C(=O)NCC(=O)N1C[C@H](O)C[C@H]1C(N)=O)[C@@H](C)CC)[C@@H](C)O)C(C)C)[C@@H](C)O [compound 189] (H-GCRTGTCTVQRLAHQIYQFTDKDKDNVAPRTKISPQG[Hyp]-NH2; disulfide 2-7; N-terminus assumed)
2,5.600,CC[C@H](C)[C@H](NC(=O)[C@H](CCC(N)=O)NC(=O)[C@H](Cc1c[nH]cn1)NC(=O)[C@H](C)NC(=O)[C@H](CC(C)C)NC(=O)[C@H](CCCNC(=N)N)NC(=O)[C@H](CCC(N)=O)NC(=O)[C@@H](NC(=O)[C@@H](NC(=O)[C@@H]1CSSC[C@H](NC(=O)CN)C(=O)N[C@@H](CCCNC(=N)N)C(=O)N[C@@H]([C@@H](C)O)C(=O)NCC(=O)N[C@@H]([C@@H](C)O)C(=O)N1)[C@@H](C)O)C(C)C)C(=O)N[C@@H](Cc1ccc(O)cc1)C(=O)N[C@@H](CCC(N)=O)C(=O)N[C@@H](Cc1ccccc1)C(=O)N[C@H](C(=O)N[C@@H](CC(=O)O)C(=O)N[C@@H](CCCCN)C(=O)N[C@@H](CC(=O)O)C(=O)N[C@@H](CCCCN)C(=O)N[C@@H](CC(=O)O)C(=O)N[C@@H](CC(N)=O)C(=O)N[C@H](C(=O)N[C@@H](C)C(=O)N1CCC[C@H]1C(=O)N[C@@H](CCCNC(=N)N)C(=O)N[C@H](C(=O)N[C@@H](CCCCN)C(=O)N[C@H](C(=O)N[C@@H](CO)C(=O)N1CCC[C@H]1C(=O)N[C@@H](CC(N)=O)C(=O)NCC(=O)N1C[C@H](O)C[C@H]1C(N)=O)[C@@H](C)CC)[C@@H](C)O)C(C)C)[C@@H](C)O [compound 197] (H-GCRTGTCTVQRLAHQIYQFTDKDKDNVAPRTKISPNG[Hyp]-NH2; disulfide 2-7; N-terminus assumed)

# Further lines, the compound ahead of its results:
row,Structure (SMILES),Max ThT signal (%)
1,CC[C@H](C)[C@H](NC(=O)[C@H](CCC(N)=O)NC(=O)[C@H](Cc1c[nH]cn1)NC(=O)[C@H](C)NC(=O)[C@H](CC(C)C)NC(=O)[C@H](CCCNC(=N)N)NC(=O)[C@H](CCC(N)=O)NC(=O)[C@@H](NC(=O)[C@@H](NC(=O)[C@@H]1CSSC[C@H](NC(=O)CN)C(=O)N[C@@H](CCCNC(=N)N)C(=O)N[C@@H]([C@@H](C)O)C(=O)NCC(=O)N[C@@H]([C@@H](C)O)C(=O)N1)[C@@H](C)O)C(C)C)C(=O)N[C@@H](Cc1ccc(O)cc1)C(=O)N[C@@H](CCC(N)=O)C(=O)N[C@@H](Cc1ccccc1)C(=O)N[C@H](C(=O)N[C@@H](CC(=O)O)C(=O)N[C@@H](CCCCN)C(=O)N[C@@H](Cc1ccccc1)C(=O)N[C@@H](CCCCN)C(=O)N[C@@H](CC(=O)O)C(=O)N[C@@H](CC(N)=O)C(=O)N[C@H](C(=O)N[C@@H](C)C(=O)N1CCC[C@H]1C(=O)N[C@@H](CCCNC(=N)N)C(=O)N[C@@H](CO)C(=O)N[C@@H](CCCCN)C(=O)N[C@H](C(=O)N[C@@H](CO)C(=O)N1CCC[C@H]1C(=O)N[C@@H](CCC(N)=O)C(=O)N[C@H](C(=O)N1CCC[C@H]1C(N)=O)[C@@H](C)O)[C@@H](C)CC)C(C)C)[C@@H](C)O [compound 235] (H-GCRTGTCTVQRLAHQIYQFTDKFKDNVAPRSKISPQTP-NH2; disulfide 2-7; N-terminus assumed),0.800
2,CC[C@H](C)[C@H](NC(=O)[C@H](CCC(N)=O)NC(=O)[C@H](Cc1c[nH]cn1)NC(=O)[C@H](C)NC(=O)[C@H](CC(C)C)NC(=O)[C@H](Cc1c[nH]c2ccccc12)NC(=O)[C@H](CCC(N)=O)NC(=O)[C@@H](NC(=O)[C@@H](NC(=O)[C@@H]1CSSC[C@H](NC(=O)CN)C(=O)N[C@@H](CCCNC(=N)N)C(=O)N[C@@H](Cc2ccccc2)C(=O)NCC(=O)N[C@@H]([C@@H](C)O)C(=O)N1)[C@@H](C)O)C(C)C)C(=O)N[C@@H](Cc1ccc(O)cc1)C(=O)N[C@@H](CCC(N)=O)C(=O)N[C@@H](Cc1ccccc1)C(=O)N[C@H](C(=O)N[C@@H](CC(=O)O)C(=O)N[C@@H](CCCCN)C(=O)N[C@@H](CC(=O)O)C(=O)N[C@@H](CCCCN)C(=O)N[C@@H](CC(=O)O)C(=O)N[C@@H](CC(N)=O)C(=O)N[C@H](C(=O)N[C@@H](C)C(=O)N1CCC[C@H]1C(=O)N[C@@H](CCCNC(=N)N)C(=O)N[C@H](C(=O)N[C@@H](CCCCN)C(=O)N[C@H](C(=O)N[C@@H](CO)C(=O)N1CCC[C@H]1C(=O)N[C@@H](CCC(N)=O)C(=O)NCC(=O)N1C[C@H](O)C[C@H]1C(N)=O)[C@@H](C)CC)[C@@H](C)O)C(C)C)[C@@H](C)O [compound 350] (H-GCRFGTCTVQWLAHQIYQFTDKDKDNVAPRTKISPQG[Hyp]-NH2; disulfide 2-7; N-terminus assumed),15.700
3,CC[C@H](C)[C@H](NC(=O)[C@H](CCC(N)=O)NC(=O)[C@H](Cc1c[nH]cn1)NC(=O)[C@H](C)NC(=O)[C@H](CC(C)C)NC(=O)[C@H](CCCNC(=N)N)NC(=O)[C@H](CCC(N)=O)NC(=O)[C@@H](NC(=O)[C@@H](NC(=O)[C@@H]1CSSC[C@H](NC(=O)CN)C(=O)N[C@@H](CCCNC(=N)N)C(=O)N[C@@H]([C@@H](C)O)C(=O)NCC(=O)N[C@@H]([C@@H](C)O)C(=O)N1)[C@@H](C)O)C(C)C)C(=O)N[C@@H](Cc1ccc(O)cc1)C(=O)N[C@@H](CCC(N)=O)C(=O)N[C@@H](Cc1ccccc1)C(=O)N[C@H](C(=O)N[C@@H](CC(=O)O)C(=O)N[C@@H](CCCCN)C(=O)N[C@@H](Cc1ccccc1)C(=O)N[C@@H](CCCCN)C(=O)N[C@@H](CC(=O)O)C(=O)N[C@@H](CC(N)=O)C(=O)N[C@H](C(=O)N[C@@H](C)C(=O)N1CCC[C@H]1C(=O)N[C@@H](CCCNC(=N)N)C(=O)N[C@@H](CO)C(=O)N[C@@H](CCCCN)C(=O)N[C@H](C(=O)N[C@@H](CO)C(=O)N1CCC[C@H]1C(=O)N[C@@H](CCC(N)=O)C(=O)N[C@@H](CCSC)C(=O)N1C[C@H](O)C[C@H]1C(N)=O)[C@@H](C)CC)C(C)C)[C@@H](C)O [compound 236] (H-GCRTGTCTVQRLAHQIYQFTDKFKDNVAPRSKISPQM[Hyp]-NH2; disulfide 2-7; N-terminus assumed),0.600
4,CC[C@H](C)[C@H](NC(=O)[C@H](CCC(N)=O)NC(=O)[C@H](Cc1c[nH]cn1)NC(=O)[C@H](C)NC(=O)[C@H](CC(C)C)NC(=O)[C@H](CCCNC(=N)N)NC(=O)[C@H](CCC(N)=O)NC(=O)[C@@H](NC(=O)[C@@H](NC(=O)[C@@H]1CSSC[C@H](NC(=O)CN)C(=O)N[C@@H](CCCNC(=N)N)C(=O)N[C@@H]([C@@H](C)O)C(=O)NCC(=O)N[C@@H]([C@@H](C)O)C(=O)N1)[C@@H](C)O)C(C)C)C(=O)N[C@@H](Cc1ccc(O)cc1)C(=O)N[C@@H](CCC(N)=O)C(=O)N[C@@H](Cc1ccccc1)C(=O)N[C@H](C(=O)N[C@@H](CC(=O)O)C(=O)N[C@@H](CCCCN)C(=O)N[C@@H](CC(=O)O)C(=O)N[C@@H](CCCCN)C(=O)N[C@@H](CC(=O)O)C(=O)N[C@@H](CC(N)=O)C(=O)N[C@H](C(=O)N[C@@H](C)C(=O)N1CCC[C@H]1C(=O)N[C@@H](CCCNC(=N)N)C(=O)N[C@@H](CO)C(=O)N[C@@H](CC(N)=O)C(=O)N[C@H](C(=O)N[C@@H](CO)C(=O)N1CCC[C@H]1C(=O)N[C@@H](CC(N)=O)C(=O)NCC(=O)N[C@@H](Cc1ccc(O)cc1)C(N)=O)C(C)C)C(C)C)[C@@H](C)O [compound 172] (H-GCRTGTCTVQRLAHQIYQFTDKDKDNVAPRSNVSPNGY-NH2; disulfide 2-7; N-terminus assumed),13.900
5,CC[C@H](C)[C@H](NC(=O)[C@H](CCC(N)=O)NC(=O)[C@H](Cc1c[nH]cn1)NC(=O)[C@H](C)NC(=O)[C@H](CC(C)C)NC(=O)[C@H](CCCNC(=N)N)NC(=O)[C@H](CCC(N)=O)NC(=O)[C@@H](NC(=O)[C@@H](NC(=O)[C@@H]1CSSC[C@H](NC(=O)CN)C(=O)N[C@@H](CCCNC(=N)N)C(=O)N[C@@H]([C@@H](C)O)C(=O)NCC(=O)N[C@@H]([C@@H](C)O)C(=O)N1)[C@@H](C)O)C(C)C)C(=O)N[C@@H](Cc1ccc(O)cc1)C(=O)N[C@@H](CCC(N)=O)C(=O)N[C@@H](Cc1ccccc1)C(=O)N[C@H](C(=O)N[C@@H](CC(=O)O)C(=O)N[C@@H](CCCCN)C(=O)N[C@@H](CC(=O)O)C(=O)N[C@@H](CCCCN)C(=O)N[C@@H](CC(=O)O)C(=O)N[C@@H](CC(N)=O)C(=O)N[C@H](C(=O)N[C@@H](C)C(=O)N1CCC[C@H]1C(=O)N[C@@H](CCCNC(=N)N)C(=O)N[C@@H](CO)C(=O)N[C@@H](CCCCN)C(=O)N[C@H](C(=O)N[C@@H](CO)C(=O)N1CCC[C@H]1C(=O)N[C@@H](CC(N)=O)C(=O)NCC(=O)N1C[C@H](O)C[C@H]1C(N)=O)C(C)C)C(C)C)[C@@H](C)O [compound 204] (H-GCRTGTCTVQRLAHQIYQFTDKDKDNVAPRSKVSPNG[Hyp]-NH2; disulfide 2-7; N-terminus assumed),2.200
